According to patent US20260284018A1, “DUAL INHIBITORS OF DYRK1A AND 5-HT2 FOR TREATING A BRAIN DISORDER” (THE REGENTS OF THE UNIVERSITY OF CALIFORNIA, priority 2023, published 2026):

How the values were obtained:
Experiment in all cases: KINOMEscan scanEDGE
Format in all cases: binding
Conditions in all cases: read-out: Percent Control
CSNK1G2 = target: T1, CSNK1G2 (Homo sapiens, UniProt P78368)
T1 construct: purchased Eurofins DiscoverX
Experimental: (§1) Kinome Scan. Compound HTW_A_8 fumarate was screened against 97 kinases at a single concentration of 10 μM at Eurofins DiscoverX using their KINOMEscan™ scanEDGE assay. The results are reported as the % activity relative to DMSO control, where lower values indicate higher affinity. See Table 1 for the full kinome profile.

INSR = target: T2, INSR (Homo sapiens, UniProt P06213)
T2 construct: purchased Eurofins DiscoverX
Experimental: as §1

PLK4 = target: T3, PLK4 (Homo sapiens, UniProt O00444)
T3 construct: purchased Eurofins DiscoverX KINOMEscan scanEDGE
Experimental: as §1

LKB1 = target: T4, LKB1 (Homo sapiens, UniProt Q15831)
T4 construct: purchased Eurofins DiscoverX (KINOMEscan scanEDGE service)
Experimental: as §1

MLK1 = target: T5, MLK1 (Homo sapiens, UniProt P80192)
T5 construct: purchased Eurofins DiscoverX (KINOMEscan scanEDGE service)
Experimental: as §1

ABL1-nonphosphorylated = target: T6, ABL1-nonphosphorylated (Homo sapiens, UniProt P00519)
T6 construct: purchased Eurofins DiscoverX
Experimental: as §1

MKNK2 = target: T7, MKNK2 (Homo sapiens, UniProt Q9HBH9)
T7 construct: purchased Eurofins DiscoverX (KINOMEscan scanEDGE service)
Experimental: as §1

MAP3K4 = target: T8, MAP3K4 (Homo sapiens, UniProt Q9Y6R4)
T8 construct: purchased Eurofins DiscoverX (KINOMEscan scanEDGE service)
Experimental: as §1

PDGFRB = target: T9, PDGFRB (Homo sapiens, UniProt P09619)
T9 construct: purchased Eurofins DiscoverX (KINOMEscan scanEDGE service)
Experimental: as §1

p38-alpha = target: T10, p38-alpha (Homo sapiens, UniProt Q16539)
T10 construct: purchased Eurofins DiscoverX (KINOMEscan scanEDGE service)
Experimental: as §1

TGFBR1 = target: T11, TGFBR1 (Homo sapiens, UniProt P36897)
T11 construct: purchased Eurofins DiscoverX KINOMEscan scanEDGE
Experimental: as §1

[1] = target: T12, RSK2(Kin.Dom.1-N-terminal) (Homo sapiens, UniProt P51812)
T12 construct: RSK2(Kin.Dom.1-N-terminal); purchased Eurofins DiscoverX KINOMEscan scanEDGE
Experimental: as §1

AURKA = target: T13, AURKA (Homo sapiens, UniProt O14965)
T13 construct: purchased Eurofins DiscoverX
Experimental: as §1

TSSK1B = target: T14, TSSK1B (Homo sapiens, UniProt Q9BXA7)
T14 construct: purchased Eurofins DiscoverX KINOMEscan scanEDGE
Experimental: as §1

EPHA2 = target: T15, EPHA2 (Homo sapiens, UniProt P29317)
T15 construct: purchased Eurofins DiscoverX
Experimental: as §1

ERBB4 = target: T16, ERBB4 (Homo sapiens, UniProt Q15303)
T16 construct: purchased Eurofins DiscoverX
Experimental: as §1

AKT1 = target: T17, AKT1 (Homo sapiens, UniProt P31749)
T17 construct: purchased Eurofins DiscoverX
Experimental: as §1

PDPK1 = target: T18, PDPK1 (Homo sapiens, UniProt O15530)
T18 construct: purchased Eurofins DiscoverX (KINOMEscan scanEDGE service)
Experimental: as §1

PAK4 = target: T19, PAK4 (Homo sapiens, UniProt O96013)
T19 construct: purchased Eurofins DiscoverX (KINOMEscan scanEDGE service)
Experimental: as §1

PLK3 = target: T20, PLK3 (Homo sapiens, UniProt Q9H4B4)
T20 construct: purchased Eurofins DiscoverX KINOMEscan scanEDGE
Experimental: as §1

[2] = target: T21, JAK3(JH1domain-catalytic) (Homo sapiens, UniProt P52333)
T21 construct: JAK3(JH1domain-catalytic); purchased Eurofins DiscoverX
Experimental: as §1

PIM2 = target: T22, PIM2 (Homo sapiens, UniProt Q9P1W9)
T22 construct: purchased Eurofins DiscoverX (KINOMEscan scanEDGE service)
Experimental: as §1

YANK3 = target: T23, YANK3 (Homo sapiens, UniProt Q86UX6)
T23 construct: purchased Eurofins DiscoverX KINOMEscan scanEDGE
Experimental: as §1

DYRK1B = target: T24, DYRK1B (Homo sapiens, UniProt Q9Y463)
T24 construct: purchased Eurofins DiscoverX
Experimental: as §1

ALK = target: T25, ALK (Homo sapiens, UniProt Q9UM73)
T25 construct: purchased Eurofins DiscoverX
Experimental: as §1

ABL1-phosphorylated = target: T26, ABL1-phosphorylated (Homo sapiens, UniProt P00519)
T26 construct: purchased Eurofins DiscoverX
Experimental: as §1

IKK-alpha = target: T27, IKK-alpha (Homo sapiens, UniProt O15111)
T27 construct: purchased Eurofins DiscoverX
Experimental: as §1

CSNK1D = target: T28, CSNK1D (Homo sapiens, UniProt P48730)
T28 construct: purchased Eurofins DiscoverX
Experimental: as §1

EGFR(L858R) = target: T29, EGFR(L858R) (Homo sapiens, UniProt P00533, L858R)
T29 construct: purchased Eurofins DiscoverX
Experimental: as §1

FGFR3 = target: T30, FGFR3 (Homo sapiens, UniProt P22607)
T30 construct: purchased Eurofins DiscoverX
Experimental: as §1

IKK-beta = target: T31, IKK-beta (Homo sapiens, UniProt O14920)
T31 construct: purchased Eurofins DiscoverX
Experimental: as §1

RET = target: T32, RET (Homo sapiens, UniProt P07949)
T32 construct: purchased Eurofins DiscoverX KINOMEscan scanEDGE
Experimental: as §1

ERBB2 = target: T33, ERBB2 (Homo sapiens, UniProt P04626)
T33 construct: purchased Eurofins DiscoverX
Experimental: as §1

CDK2 = target: T34, CDK2 (Homo sapiens, UniProt P24941)
T34 construct: purchased Eurofins DiscoverX
Experimental: as §1

CDK7 = target: T35, CDK7 (Homo sapiens, UniProt P50613)
T35 construct: purchased Eurofins DiscoverX
Experimental: as §1

MKNK1 = target: T36, MKNK1 (Homo sapiens, UniProt Q9BUB5)
T36 construct: purchased Eurofins DiscoverX (KINOMEscan scanEDGE service)
Experimental: as §1

MEK1 = target: T37, MEK1 (Homo sapiens, UniProt Q02750)
T37 construct: purchased Eurofins DiscoverX (KINOMEscan scanEDGE service)
Experimental: as §1

PCTK1 = target: T38, PCTK1 (Homo sapiens, UniProt Q00536)
T38 construct: purchased Eurofins DiscoverX (KINOMEscan scanEDGE service)
Experimental: as §1

T7 sequence (Q9HBH9 whole entry): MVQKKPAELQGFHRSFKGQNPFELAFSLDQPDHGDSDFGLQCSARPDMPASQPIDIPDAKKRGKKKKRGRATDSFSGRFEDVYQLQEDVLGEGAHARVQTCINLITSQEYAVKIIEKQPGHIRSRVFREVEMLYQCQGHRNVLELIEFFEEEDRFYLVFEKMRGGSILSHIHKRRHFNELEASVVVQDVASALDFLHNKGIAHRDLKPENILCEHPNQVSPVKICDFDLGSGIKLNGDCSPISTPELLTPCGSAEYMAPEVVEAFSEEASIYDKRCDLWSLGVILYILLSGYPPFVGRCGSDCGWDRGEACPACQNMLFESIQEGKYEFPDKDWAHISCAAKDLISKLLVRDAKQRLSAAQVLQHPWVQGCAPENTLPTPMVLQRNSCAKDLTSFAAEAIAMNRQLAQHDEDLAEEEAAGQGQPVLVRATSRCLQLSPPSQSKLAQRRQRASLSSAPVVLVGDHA
T21 sequence (P52333 822-1111 limits assumed): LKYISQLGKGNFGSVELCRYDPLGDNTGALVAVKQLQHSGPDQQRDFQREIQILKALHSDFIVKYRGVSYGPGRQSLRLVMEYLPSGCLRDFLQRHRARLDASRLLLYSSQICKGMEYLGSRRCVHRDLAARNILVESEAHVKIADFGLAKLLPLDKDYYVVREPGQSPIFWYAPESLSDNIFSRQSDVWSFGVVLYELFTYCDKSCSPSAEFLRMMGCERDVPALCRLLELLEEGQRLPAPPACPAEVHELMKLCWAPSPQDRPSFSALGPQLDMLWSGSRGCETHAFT
T1 sequence (P78368 whole entry): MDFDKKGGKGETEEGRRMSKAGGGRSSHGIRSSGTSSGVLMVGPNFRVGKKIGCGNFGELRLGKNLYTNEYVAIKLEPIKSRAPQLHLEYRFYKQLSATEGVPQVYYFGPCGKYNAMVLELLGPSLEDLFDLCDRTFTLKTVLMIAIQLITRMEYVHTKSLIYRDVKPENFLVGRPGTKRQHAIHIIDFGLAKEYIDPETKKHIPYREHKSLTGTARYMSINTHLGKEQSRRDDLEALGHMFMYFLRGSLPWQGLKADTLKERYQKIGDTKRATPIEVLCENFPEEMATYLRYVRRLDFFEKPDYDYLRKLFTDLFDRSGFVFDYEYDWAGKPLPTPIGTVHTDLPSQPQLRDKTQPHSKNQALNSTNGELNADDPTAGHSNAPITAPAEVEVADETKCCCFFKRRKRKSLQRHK
T19 sequence (O96013 whole entry): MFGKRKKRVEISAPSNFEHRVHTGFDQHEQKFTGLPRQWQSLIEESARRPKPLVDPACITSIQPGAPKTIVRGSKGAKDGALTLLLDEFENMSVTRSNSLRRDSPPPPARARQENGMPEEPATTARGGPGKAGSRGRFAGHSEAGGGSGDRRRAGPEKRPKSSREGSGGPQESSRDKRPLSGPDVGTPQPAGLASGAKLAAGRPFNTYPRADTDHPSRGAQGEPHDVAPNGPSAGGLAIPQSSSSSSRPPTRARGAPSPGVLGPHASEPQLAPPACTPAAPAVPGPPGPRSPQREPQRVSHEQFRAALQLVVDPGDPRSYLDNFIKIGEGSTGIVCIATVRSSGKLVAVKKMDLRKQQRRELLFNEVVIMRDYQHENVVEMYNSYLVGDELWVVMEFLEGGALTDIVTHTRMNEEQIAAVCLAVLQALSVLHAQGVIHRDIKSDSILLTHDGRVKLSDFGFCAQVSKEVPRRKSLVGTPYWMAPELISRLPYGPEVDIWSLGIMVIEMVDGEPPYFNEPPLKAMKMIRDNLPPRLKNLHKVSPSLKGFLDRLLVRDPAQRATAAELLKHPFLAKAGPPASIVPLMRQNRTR
T9 sequence (P09619 33-1106): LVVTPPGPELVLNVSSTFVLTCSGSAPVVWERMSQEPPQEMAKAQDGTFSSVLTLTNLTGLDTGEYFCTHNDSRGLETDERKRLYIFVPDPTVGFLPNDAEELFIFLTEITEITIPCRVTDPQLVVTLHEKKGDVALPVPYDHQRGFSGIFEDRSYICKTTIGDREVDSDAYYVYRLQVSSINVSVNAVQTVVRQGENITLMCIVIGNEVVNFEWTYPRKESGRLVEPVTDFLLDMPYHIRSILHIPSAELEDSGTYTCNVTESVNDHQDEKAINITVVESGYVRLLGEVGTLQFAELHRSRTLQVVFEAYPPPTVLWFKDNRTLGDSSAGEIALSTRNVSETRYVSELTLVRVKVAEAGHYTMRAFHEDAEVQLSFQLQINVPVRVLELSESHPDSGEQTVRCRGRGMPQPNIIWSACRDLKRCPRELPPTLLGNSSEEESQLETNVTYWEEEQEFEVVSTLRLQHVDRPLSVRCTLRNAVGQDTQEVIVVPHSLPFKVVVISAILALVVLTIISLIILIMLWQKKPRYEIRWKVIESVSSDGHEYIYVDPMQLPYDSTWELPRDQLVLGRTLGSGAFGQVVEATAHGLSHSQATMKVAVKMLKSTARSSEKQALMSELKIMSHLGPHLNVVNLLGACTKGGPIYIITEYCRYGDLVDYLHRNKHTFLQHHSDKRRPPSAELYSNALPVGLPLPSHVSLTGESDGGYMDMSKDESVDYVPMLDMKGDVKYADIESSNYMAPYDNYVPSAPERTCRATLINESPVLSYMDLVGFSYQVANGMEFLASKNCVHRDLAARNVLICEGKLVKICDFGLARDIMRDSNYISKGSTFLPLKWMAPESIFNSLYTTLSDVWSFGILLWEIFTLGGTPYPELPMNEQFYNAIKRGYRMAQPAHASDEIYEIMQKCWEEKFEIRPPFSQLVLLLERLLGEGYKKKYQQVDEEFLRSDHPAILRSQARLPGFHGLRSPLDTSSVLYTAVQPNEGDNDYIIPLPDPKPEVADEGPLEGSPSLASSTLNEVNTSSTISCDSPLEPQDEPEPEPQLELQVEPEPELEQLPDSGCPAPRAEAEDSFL
T22 sequence (Q9P1W9 whole entry): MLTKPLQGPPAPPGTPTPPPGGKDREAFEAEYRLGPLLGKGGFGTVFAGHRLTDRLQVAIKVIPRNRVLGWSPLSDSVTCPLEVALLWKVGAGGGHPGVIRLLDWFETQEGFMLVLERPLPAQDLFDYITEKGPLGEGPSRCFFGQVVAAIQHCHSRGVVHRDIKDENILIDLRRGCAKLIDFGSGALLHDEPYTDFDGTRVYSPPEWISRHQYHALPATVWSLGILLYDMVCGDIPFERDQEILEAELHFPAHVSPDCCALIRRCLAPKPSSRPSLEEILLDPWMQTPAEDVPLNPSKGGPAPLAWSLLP
T27 sequence (O15111 whole entry): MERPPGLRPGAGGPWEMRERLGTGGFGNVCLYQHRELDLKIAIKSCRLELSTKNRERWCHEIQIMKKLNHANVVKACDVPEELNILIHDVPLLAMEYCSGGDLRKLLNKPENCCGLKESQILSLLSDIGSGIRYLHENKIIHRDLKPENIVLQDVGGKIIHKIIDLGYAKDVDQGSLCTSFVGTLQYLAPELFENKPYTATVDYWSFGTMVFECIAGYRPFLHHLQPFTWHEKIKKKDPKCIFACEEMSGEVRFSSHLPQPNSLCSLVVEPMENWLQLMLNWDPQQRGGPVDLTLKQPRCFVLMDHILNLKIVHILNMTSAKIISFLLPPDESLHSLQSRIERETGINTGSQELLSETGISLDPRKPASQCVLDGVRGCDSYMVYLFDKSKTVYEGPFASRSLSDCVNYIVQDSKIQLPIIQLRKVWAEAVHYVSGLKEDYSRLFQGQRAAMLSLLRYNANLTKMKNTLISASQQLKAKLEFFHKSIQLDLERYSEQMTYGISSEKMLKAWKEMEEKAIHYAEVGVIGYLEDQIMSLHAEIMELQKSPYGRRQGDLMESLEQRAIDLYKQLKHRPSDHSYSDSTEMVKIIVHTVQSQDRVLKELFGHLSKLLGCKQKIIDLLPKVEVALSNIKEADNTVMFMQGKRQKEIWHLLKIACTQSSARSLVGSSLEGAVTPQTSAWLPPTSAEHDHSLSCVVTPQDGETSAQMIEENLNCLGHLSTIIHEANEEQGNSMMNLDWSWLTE
T38 sequence (Q00536 whole entry): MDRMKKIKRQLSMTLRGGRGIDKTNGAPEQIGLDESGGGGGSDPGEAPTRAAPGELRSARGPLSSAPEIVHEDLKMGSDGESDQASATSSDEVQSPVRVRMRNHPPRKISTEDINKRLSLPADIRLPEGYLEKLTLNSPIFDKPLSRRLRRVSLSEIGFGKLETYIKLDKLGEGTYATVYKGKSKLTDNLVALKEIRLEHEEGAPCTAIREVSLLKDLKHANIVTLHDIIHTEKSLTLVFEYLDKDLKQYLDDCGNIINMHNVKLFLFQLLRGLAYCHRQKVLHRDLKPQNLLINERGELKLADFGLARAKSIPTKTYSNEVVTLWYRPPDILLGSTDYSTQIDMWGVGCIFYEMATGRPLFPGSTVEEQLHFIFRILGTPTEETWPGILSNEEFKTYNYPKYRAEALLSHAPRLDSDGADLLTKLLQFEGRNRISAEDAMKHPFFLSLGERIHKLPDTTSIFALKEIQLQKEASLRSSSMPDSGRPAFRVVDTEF
T24 sequence (Q9Y463 whole entry): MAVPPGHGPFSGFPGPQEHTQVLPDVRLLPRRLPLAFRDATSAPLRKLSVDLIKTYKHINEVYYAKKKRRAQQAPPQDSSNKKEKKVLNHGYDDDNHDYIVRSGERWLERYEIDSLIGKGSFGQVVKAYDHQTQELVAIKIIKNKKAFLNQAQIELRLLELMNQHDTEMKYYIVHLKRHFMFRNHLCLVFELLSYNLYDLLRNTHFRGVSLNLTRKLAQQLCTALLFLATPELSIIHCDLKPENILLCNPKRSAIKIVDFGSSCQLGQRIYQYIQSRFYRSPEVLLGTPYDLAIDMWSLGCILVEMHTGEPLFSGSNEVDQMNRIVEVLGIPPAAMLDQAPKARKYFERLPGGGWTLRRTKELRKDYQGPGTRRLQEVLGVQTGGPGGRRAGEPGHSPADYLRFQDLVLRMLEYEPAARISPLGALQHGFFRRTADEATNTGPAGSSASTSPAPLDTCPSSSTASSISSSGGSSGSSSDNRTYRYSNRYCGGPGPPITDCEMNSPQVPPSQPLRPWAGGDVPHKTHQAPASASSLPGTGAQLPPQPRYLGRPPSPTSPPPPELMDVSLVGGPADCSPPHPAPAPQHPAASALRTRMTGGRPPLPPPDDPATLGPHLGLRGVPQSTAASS

Work on `COc1ccc2c3ccnc(C)c3n(CCN(C)C)c2c1.O=C(O)/C=C/C(=O)O` [HTW_A_8 fumarate, 2-(7-methoxy-1-methyl-9H-pyrido[3,4-b]indol-9-yl)-N,N-dimethylethan-1-amine Fumarate Salt (2:3)] yielded a remaining binding at 10 µM (CSNK1G2) of 86%, a remaining binding at 10 µM (INSR) of 100% and a remaining binding at 10 µM (PLK4) of 81%. For the same molecule, the remaining binding at 10 µM (LKB1) was 71%, the remaining binding at 10 µM (MLK1) was 91% and the remaining binding at 10 µM (ABL1-nonphosphorylated) was 79%. For the same molecule, the remaining binding at 10 µM (MKNK2) was 100%, the remaining binding at 10 µM (MAP3K4) was 100% and the remaining binding at 10 µM (PDGFRB) was 100%. It also gave a remaining binding at 10 µM (p38-alpha) of 100%, a remaining binding at 10 µM (TGFBR1) of 90% and a remaining binding at 10 µM [1] of 99%. It also gave a remaining binding at 10 µM (AURKA) of 100%, a remaining binding at 10 µM (TSSK1B) of 100% and a remaining binding at 10 µM (EPHA2) of 88%. The remaining binding at 10 µM (ERBB4) was 100%, the remaining binding at 10 µM (AKT1) was 96% and the remaining binding at 10 µM (PDPK1) was 76%. It also gave a remaining binding at 10 µM (PAK4) of 100%, a remaining binding at 10 µM (PLK3) of 96% and a remaining binding at 10 µM [2] of 100%. For the same molecule, the remaining binding at 10 µM (PIM2) was 84%, the remaining binding at 10 µM (YANK3) was 94% and the remaining binding at 10 µM (DYRK1B) was 10%. The remaining binding at 10 µM (ALK) was 79%, the remaining binding at 10 µM (ABL1-phosphorylated) was 81% and the remaining binding at 10 µM (IKK-alpha) was 100%. It also gave a remaining binding at 10 µM (CSNK1D) of 88%, a remaining binding at 10 µM (EGFR(L858R)) of 87% and a remaining binding at 10 µM (FGFR3) of 95%. It also gave a remaining binding at 10 µM (IKK-beta) of 100%, a remaining binding at 10 µM (RET) of 95% and a remaining binding at 10 µM (ERBB2) of 100%. It also gave a remaining binding at 10 µM (CDK2) of 100%, a remaining binding at 10 µM (CDK7) of 15% and a remaining binding at 10 µM (MKNK1) of 93%. The remaining binding at 10 µM (MEK1) was 87% and the remaining binding at 10 µM (PCTK1) was 96%.
